The test system of test [1] is PP1. The conditions noted are these: cellular serine/threonine phosphatase PP1; Cohen P, et al. (1990); cited from earlier work.
In test [2] the test system is PP2A. The conditions noted are these: cellular serine/threonine phosphatase PP2A; Cohen P, et al. (1990); cited from earlier work.
Test [3] relates to HBc (HBV capsid assembly). Kind of test: In vitro capsid assembly in RRL, agarose gel electrophoresis. The test is classed as biochemical, Hepatitis B virus. On the procedure:
(§1) The TNT Coupled Rabbit Reticulocyte Lysate (RRL) in vitro translation system (Promega) was used to express the HBc proteins as recommended by the manufacturer's protocol. In vitro translated proteins were labeled by ^35S methionine. The translation reaction mix contained ca. 125 mM KCI and 2.5 mM Mg^++ (Promega).
(§2) Unless specifically indicated otherwise, the general assembly reactions included 1 to 3 microL of translation products per 10 microL final reaction volume in 1× buffer 3 (100 mM NaCl, 50 mM Tris-HCl, 10 mM MgCl2, 1 mM DTT, pH 7.9; New England Biolabs) supplemented with 1×EDTA-free protease inhibitor cocktail (Roche) and 0.8 U/μl RNasin Plus RNase Inhibitor (Promega). The reactions were incubated for 16 hrs at 37° C. unless indicated otherwise. Where indicated, additional enzymatic manipulations were performed using the same reaction buffer as above. (1) Exogenous phosphatase treatment. One unit of calf intestinal alkaline phosphatase (CIAP; New England Biolabs) per microliter of the final reaction volume was added at the end of translation and incubated for 16 hours at 37° C. (2) Kinase inhibitor treatment. […] The final concentration of DMSO in all reactions was 1% (i.e., kinase inhibitor stocks were always diluted 100-fold into the translation or assembly reactions). (3) Phosphatase inhibitor treatment. A cocktail of non-specific phosphatase inhibitors (10 mM NaF, 50 mM β-glycerophosphate, 10 mM sodium pyrophosphate, and 2 mM sodium orthovanadate; all final concentrations) were added at the end of the translation and incubated for 16 hours at 37° C. Alternatively, okadaic acid (Sigma) was added at the end of the translation at the indicated concentrations and incubated for 16 hours at 37° C. (4) RNase A digestion. RNase A (100 μg/ml final concentration) was added at the end of the translation and incubated for 16 hour at 37° C., or added at the end of the 16 hr assembly reaction and incubated for another one hr.
(§3) ^35S-labeled translation reactions were resolved by 1% agarose gel electrophoresis (100 V for ˜3 hours), using 6×DNA Loading Buffer Blue (New England Biolabs). The gels were then soaked in 10×SSC (1.5 M NaCl, 150 mM sodium citrate, pH 7.0) for approximately 30 minutes and transferred overnight to nitrocellulose membrane by capillary transfer. The next day the membranes were UV cross-linked and dried in a vacuum oven for 2 hours. The translation products were analyzed by autoradiography and Western blotting with the rabbit polyclonal anti-HBcAg (Dako) or mouse monoclonal anti-woodchuck hepatitis virus core protein (Ning X, et al. (2011) PLoS pathogens 7: e1002255).

The test system of test [4] is HBc CTD. As to the kind of experiment: Mobility of unassembled HBc on agarose gel (CTD phosphorylation state) and HBc protein levels in RRL. The conditions noted are these: for mobility upshift on the agarose gel of WT HBc: kinase inhibitors added at beginning of translation, ERKI 310 μM, Bisindo 40 μM; for mobility upshift on the agarose gel of WT HBc / C149 mobility on the agarose gel: Rosc 250 μM; for C149 mobility on the agarose gel: kinase inhibitors. The class given is biochemical, Hepatitis B virus. On the procedure: as §1, §2, §3
^35S-labeled translation reactions were resolved by SDS-PAGE on 15% or 12.5% polyacrylamide gels. The resolved proteins were transferred to PVDF membrane and detected by autoradiography or Western blotting as above.

[5] abbreviates: phosphatase inhibitor added during assembly incubation, OA 50 nM.
[6] abbreviates: kinase inhibitors, Rosc 250 μM, CDK2I 250 μM.
Where [7] appears, read: RNase pretreatment before assembly.
Setting [8] is: RNase treatment before assembly.
[9] abbreviates: CIAP treatment following translation.

For orientation: IC50 means the concentration that gives 50% inhibition. Take `C=C1[C@@H](O)[C@@H]2O[C@]3(CC[C@H](/C=C/[C@@H](C)[C@@H]4CC(C)=C[C@@]5(O[C@H](C[C@@](C)(O)C(=O)O)CC[C@H]5O)O4)O3)CC[C@H]2O[C@@H]1[C@@H](O)C[C@H](C)[C@H]1O[C@@]2(CCCCO2)CC[C@H]1C` [OA, okadaic acid]: the IC50 in test [1] is 15 to 20 nM. In test [2], the 50% inhibitory concentration (IC50) was ~0.1 nM. In test [3] (setting [5]), the “capsid assembly by 3A” value is “not inhibited” and the “capsid assembly by 3E” value is on record as “prevented assembly”. Further, the “mobility upshift of the WT HBc on the agarose gel” value in test [4] (phosphatase inhibitor added during overnight 37° C. incubation following translation, OA 50 nM) is recorded as “completely blocked”. Further, the “OA concentration that could significantly affect the dephosphorylation-induced mobility upshift of the WT HBc” value in test [4] (titration of OA, overnight incubation at 37° C.) came out at 4 nM.

In the case of `CN(C)CCCn1cc(C2=C(c3c[nH]c4ccccc34)C(=O)NC2=O)c2ccccc21` [PKC inhibitor, Bisindolymaleimide I], the “mobility upshift on the agarose gel of WT HBc” value (from here on “mobility upshift … of WT HBc”) in test [4] (CDK2I 250 μM) is “no effect”.

Turning to `CC[C@H](CO)Nc1nc(NCc2ccccc2)c2ncn(C(C)C)c2n1` [roscovitine, Roscovitine], in test [3] (setting [6]), the 7E assembly entry was “little effect”. Besides, the “C149 mobility on the agarose gel” value in test [4] (CDK2I 250 μM) is “no effect”.

Consider `Nc1[nH]nc2nnc(-c3c(-c4ccccc4)nn4ccccc34)cc12` [ERK inhibitor, Erk inhibitor II], for which, in test [4] (CDK2I 250 μM), the “mobility upshift … of WT HBc” value is on record as “no effect”.

Regarding `COc1ccc(CNc2nc(N(CCO)CCO)nc3c2ncn3C(C)C)cc1` [CDK2 inhibitor, CDK2 inhibitor III], the 7E assembly entry in test [3] (setting [6]) is reported as “little effect”. Moreover, the “levels of the WT and mutant HBc proteins” value in test [4] (SDS-PAGE, CDK2I 250 μM) is “increase”. Further, in test [4] (CDK2I 250 μM), the “mobility upshift … of WT HBc” value is listed as “induced a mobility upshift” and the “C149 mobility on the agarose gel” value is reported as “no effect”.

B1: RNase: RNase A, 100 μg/ml final concentration (protein, UniProt P61823 27-150, looked up)
Ribonuclease pancreatic: KETAAAKFERQHMDSSTSAASSSNYCNQMMKSRNLTKDRCKPVNTFVHESLADVQAVCSQKNVACKNGQTNCYQSYSTMSITDCRETGSSKYPNCAYKTTQANKHIIVACEGNPYVPVHFDASV
Take B1: in test [3] (setting [7]), the “assembly of the 3A mutant” value is “no effect” and the “assembly of the 3E mutant” value was “prevented assembly”. In addition, in test [3] (RNase treatment before CIAP treatment, RNase A 100 μg/ml), the “WT HBc capsid assembly” value is “prevented capsid assembly”. Moreover, in test [3] (setting [8]), the 7A assembly result was “abolished” and the 7E assembly entry is recorded as “no effect”. For the same molecule, the “assembled capsids (WT and mutants)” value in test [3] (RNase treatment following the completion of capsid assembly) is “little effect”.

B2: CIAP: calf intestinal alkaline phosphatase, exogenous phosphatase (New England Biolabs) (protein, UniProt P19111 20-506, looked up)
Intestinal-type alkaline …: LVPVEEEDPAFWNRQAAQALDVAKKLQPIQTAAKNVILFLGDGMGVPTVTATRILKGQMNGKLGPETPLAMDQFPYVALSKTYNVDRQVPDSAGTATAYLCGVKGNYRTIGVSAAARYNQCKTTRGNEVTSVMNRAKKAGKSVGVVTTTRVQHASPAGAYAHTVNRNWYSDADLPADAQMNGCQDIAAQLVNNMDIDVILGGGRKYMFPVGTPDPEYPDDASVNGVRKRKQNLVQAWQAKHQGAQYVWNRTALLQAADDSSVTHLMGLFEPADMKYNVQQDHTKDPTLQEMTEVALRVVSRNPRGFYLFVEGGRIDHGHHDDKAYMALTEAGMFDNAIAKANELTSELDTLILVTADHSHVFSFGGYTLRGTSIFGLAPSKALDSKSYTSILYGNGPGYALGGGSRPDVNDSTSEDPSYQQQAAVPQASETHGGEDVAVFARGPQAHLVHGVEEETFVAHIMAFAGCVEPYTDCNLPAPTTATSIPD
As to B2, the “assembly of the WT HBc” value in test [3] (CIAP 1 unit per microliter, 16 hours at 37° C. following translation) is given as “induced the assembly”. Besides, in test [3] (setting [9]), the “assembly of the 3A mutant” value is “did not have a significant effect” and the “assembly of the 3E mutant” value was “did not have a significant effect”. Moreover, in test [4] (setting [9]), the “mobility of the C149 truncation mutant” value is given as “did not affect the mobility”.

The values above are taken from patent publication US10196701B2, “Hepatitis B virus capsid assembly” (The Penn State Research Foundation, priority 2015, dated 2019).
